Values after ≈ are worked out from the molar mass of the structure shown.
Tests used:
Thamnocephalus platyurus = conditions: ref Kim et al., 2009; cited from earlier work
[1] = design: method as in Drugbank; conditions: 20 °C; ref Drugbank; cited from earlier work
[2] = Internal pharmaceutical residue concentration in exposed G. pulex (SPE, LC-MS/MS); conditions: C1 dose, 24 h
Method: Quantification of pharmaceutical concentrations in G. pulex at the 24 h exposure interval was performed. Separate exposures were set up in triplicate in beakers containing 200 mL of exposure solution (AFW spiked with the respective C1 pharmaceutical dose) and 20 organisms. At 24 h, animals were immediately rinsed with ultra-pure water and then frozen at − 20 °C for 24 h. […] Prior to extraction, frozen G. pulex samples were lyophilised at − 50 °C under vacuum for 48 h and milled in an agate mortar to a fine powder. For each analysis, 20 mg of a lyophilised composite sample were transferred to 2 mL polypropylene tubes (Eppendorf®, Hamburg, Germany), for solid-liquid extraction (SLE). […]
Briefly, 50 mg of lyophilised G. pulex were extracted in 5 mL of acetonitrile and pre-concentrated on Oasis HLB SPE cartridges (6 mL, 200 mg sorbent). […] Organic acids, nucleosides, nucleotides, sugars and AAs were measured using LC–HRMS. […]
Here, pharmaceutical residue quantification in exposed G. pulex was performed by a 3-point matrix-matched calibration curve. […] L-ornithine hydrochloride, inosine, thymidine, taurine, 1.7-dimethylxanthine and (−)-riboflavin were quantified using either ^13C,^15N-proline or ^13C,^15N-tyrosine as the internal standard. The remaining 15 compounds were quantified using external calibration and the target compound itself was used as external standard. […]

Gammarus pulex = assay: in vivo; conditions: G. pulex
Method: (§1) From these toxicity profiles the NOAEL and the LOAEL were determined. Exposure experiments were performed in Pyrex® beakers, each containing 200 mL of AFW at 15 °C and ten adult animals (> 5 mg wet weight, ww). Live/dead animals were counted after 24 h by gently prodding and observing movement of appendages. The pharmaceutical concentrations tested were in the range of 0.01 to 250 mg L^− 1. […] Concentrations where 100, 50 and 0% of the animals died were repeated in duplicate or triplicate.

in vivo = conditions: in vivo
Method: as §1

In the case of `Oc1cc(Cl)ccc1Oc1ccc(Cl)cc1Cl` [Triclosan], the “24 h- LC50 T. platyurus” value (Thamnocephalus platyurus) is listed as 0.47 µg/mL, the Water solubility [1] is listed as 12000 (20 ºC) mg L^-1 and the “internal concentration in G. pulex (detection)” value [2] is listed as “not quantifiable”. The LC10 (Gammarus pulex; 24 h) was 0.20 µg/mL (≈ 0.691 µM), the “LOAEL (C2)” value (Gammarus pulex; 24 h acute toxicity profile) was 0.3 mg L^− 1 and the “NOAEL (C1)” value (Gammarus pulex; 24 h acute toxicity profile) was 0.1 mg L^− 1. The LC50 at 24 h (in vivo) was 0.57 µg/mL (≈ 1.97 µM).

Source: PMC4912218, “Targeted metabolomics of Gammarus pulex following controlled exposures to selected pharmaceuticals in water” (The Science of the Total Environment, 2016)
